The record followed here is US20250099420A1, “SMALL MOLECULE MODULATORS OF GPR139 COMPLEX” (University of Florida Research Foundation, Incorporated, priority 2022, published 2025).

For data set [1], the target named is T1, GPR139 (Homo sapiens, UniProt Q6DWJ6).
T1 sequence (Q6DWJ6 1-353): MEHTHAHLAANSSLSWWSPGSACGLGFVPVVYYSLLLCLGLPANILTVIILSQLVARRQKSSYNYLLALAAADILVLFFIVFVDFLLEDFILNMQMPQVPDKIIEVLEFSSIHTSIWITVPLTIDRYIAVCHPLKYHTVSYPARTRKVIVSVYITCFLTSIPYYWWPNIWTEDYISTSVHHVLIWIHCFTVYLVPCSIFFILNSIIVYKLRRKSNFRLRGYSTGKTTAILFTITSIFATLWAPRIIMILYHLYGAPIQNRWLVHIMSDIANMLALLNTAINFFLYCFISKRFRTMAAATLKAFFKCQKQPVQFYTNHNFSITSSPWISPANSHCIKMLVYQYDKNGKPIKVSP
The data set is described as follows: GPR139 Agonist titration / agonist counterscreen assay (calcium detection, HEK-GPR139 cells). On the set-up: expressed in transfected cells; host or cells: HEK Aequorin cells, Maxcyte transient transfection. Type of data set: cell-based. To be noted: agonist counterscreen of the antagonists; for EC50: scientific notation, molarity, read-out: GRP139 Agonist activity EC50. How it is done:
GPR activity was assessed using a calcium detection assay. […] Negative control samples were treated with DMSO. […] Intracellular calcium was measured using Calcium 5.

The target in data set [2] is T1, GPR139. The data set is described as follows: [3H]JNJ-63533054 radioligand competition binding assay on membranes of HEK293T/17 cells. On the set-up: HA signal peptide (HASP) (N); expressed in transfected cells; host or cells: HEK293T/17 cells (membrane preparation). To be noted: for inhibition at 10 µM: 10 μM of the indicated compound, (10 μM) JNJ-63533054 as printed in title; for Ki: Ki=IC50/(1+C/Kd), membranes of HEK293T/17 cells expressing human GPR139, read-out: Ki ± SEM. The source says:
Eighteen compounds were selected for additional study. The compounds were re-synthesized and tested in radioligand binding competition assays for their ability to displace [^3H]-labeled reference agonist JNJ-63533054 on GPR139. The GPR139 construct used (pCDNA3.1-HASP-HA-GPR139) contained an N-terminal HA signal peptide (HASP), followed by an HA tag and human GPR139 (NM_001002911.4). HEK293T/17 cells were maintained in Dulbecco's modified Eagle's medium with 10% (v/v) fetal bovine serum, nonessential amino acids, and 1 mM sodium pyruvate.
Competition binding assay: Radioligand binding assay used human GPR139 expressed in HEK293T/17 cells. HEK293T/17 cells were transfected pCDNA3.1-HASP-HA-GPR139. 48 h after, cells were detached from plates by pipetting with PBS, centrifuged at 500×g for 5 min, and then the fluid was aspirated away. The cell pellets were frozen with liquid nitrogen and stored at −80° C. Pellets were homogenized in TE buffer (50 mM Tris-HCl, pH 7.4, 5 mM EDTA) and centrifuged at 1000×g at 4° C. for 5 min. Supernatant was collected and recentrifuged at 30,000×g at 4° C. for 30 min. The pellet was rehomogenized in TE buffer and incubated for 60 minutes at room temperature with eight concentrations of [^3H]JNJ-63533054 (specific activity 24.7 Ci/mmol) ranging from 0.024 nM to 400 nM. The binding reaction was terminated by filtration through GF/C filter (Waterman) followed by washes with cold TE buffer. Filters were dried in a hood overnight followed by the addition of scintillation fluid. Bound radioactivity was counted on a Hidex 600 liquid scintillation counter. […] Nonspecific binding was determined with 10 μM JNJ-63533054. The Kd values of the radioligands and IC50 of the antagonist were calculated by Graphpad Prism. Ki values were calculated as Ki=IC50/(1+C/Kd), where C is concentration of the radioligand.
Various concentrations of selected ligands were then added in the presence of 10 nM [^3H]-JNJ-63533054 and their ability to displace [^3H]labeling on cellular membranes was assessed. FIGS. 3B and 3C present representative data obtained in these experiments. […] The results of these experiments are presented in the Table 3 and confirm selective binding the compounds to GPR139 thereby validating their interaction with the intended target.
(In general: Loss of bound radioactivity is the signal in a displacement assay; it reports binding, not function.)

The next data set relates to parental HEK cells. The data set is described as follows: HEK parental Antagonist Counterscreen Assay (non-transfected cells, acetylcholine control). The data set is classed as cell-based. To be noted: for EC50: Homo sapiens, HEK293, acetylcholine as control, scientific notation, molarity. (In general: The purpose of a counterscreen is to sort out artefacts and off-target activity.)

Data set [3] has as its target T1, GPR139. The data set is described as follows: GPR139 Antagonist titration assay (calcium detection, HEK-GPR139 cells, vs EC80 of S-JNJ-63533054). The settings on record: for GPR139 Antagonist Activity Averaged Max % Response (±St. Dev.): activity relative to known control; for GPR139 Antagonist Activity Lipophilic Efficiency (logD): based on logD; for GPR139 Antagonist Activity Lipophilic Efficiency (logP): based on logP; for GPR139 Antagonist Activity Hill Slope: fitted dose-response curve.

Data set [4] addresses T1, GPR139.

Like-named read-outs stand apart in the source and are kept apart here.

Source text for parental HEK cells: C. […] The HEK parental counterscreen utilized the same cells but not transfected with the plasmid. The agonist and antagonist modes were run the same way as the primary screen but acetylcholine was used in place of GPR139 agonist as the control compound.
The HEK parental counterscreen utilized the same cells but not transfected with the plasmid. The antagonist modes assays utilized the cells being plated in the 1536 well plate overnight in growth media prior to dye loading in PDL coated plates and acetylcholine was used in place of GPR139 agonist as the control compound.
The HEK parental counterscreen utilized the same cells but not transfected with the plasmid. Acetylcholine was used in place of GPR139 agonist as the control compound. The cells were plated overnight, similar to the HEK antagonist counterscreen protocol.
The HEK parental counterscreens utilized the same cells but not transfected with the plasmid. Acetylcholine was used in place of GPR139 agonist as the control compound. The cells were plated overnight, similar to the HEK antagonist counterscreen protocol.
For each test compound, percent activation was plotted against compound concentration. A four parameter equation describing a sigmoidal dose-response curve was then fitted with adjustable baseline using Assay Explorer software (Symyx Technologies Inc.).

With `COc1ccccc1CNC(=O)N1c2ccccc2Sc2ccccc21` [SR-01000506165], on GPR139 [1], the “GRP139 Agonist activity Averaged Max % Response (±St. Dev.)” value is listed as 7.66 ± 5.35% and the EC50 was above 14.6 µM. Also, on GPR139 [2], the inhibition at 10 µM came to 103 ± 1.95% and the Ki is 1.1 ± 0.02 µM. Also, in the data set with parental HEK cells, the “HEK antagonist activity Averaged Max % Response (±St. Dev.)” value is reported as 5.72 ± 9.39% and the EC50 is above 14.6 µM. Moreover, at GPR139 [3], the EC50 came out at 2.8 µM, the “GPR139 Antagonist Activity Ligand Efficiency” value came to 0.30, the “GPR139 Antagonist Activity Averaged Max % Response (±St. Dev.)” value was determined as 86.87 ± 2.82% and the “GPR139 Antagonist Activity Lipophilic Efficiency (logD)” value turned out to be 1.14. Moreover, on GPR139 [3], the “GPR139 Antagonist Activity Lipophilic Efficiency (logP)” value was found to be 1.14 and the “GPR139 Antagonist Activity Hill Slope” value was found to be 0.52.

With `Nc1cccc(C(=O)Nc2cc(O)n(-c3c(Cl)cc(Cl)cc3Cl)n2)c1` [SR-01000514922], at GPR139 [1], the “GRP139 Agonist activity Averaged Max % Response (±St. Dev.)” value amounted to 1.17 ± 6.37% and the EC50 was above 14.7 µM. Moreover, at GPR139 [2], the inhibition at 10 µM came to 21.8 ± 14.1% and the Ki is 0.92 ± 0.02 µM. In addition, in the data set with parental HEK cells, the “HEK antagonist activity Averaged Max % Response (±St. Dev.)” value amounted to 16.24 ± 5.67% and the EC50 is above 14.7 µM. In addition, at GPR139 [3], the EC50 was 8.6 µM, the “GPR139 Antagonist Activity Ligand Efficiency” value was 0.28, the “GPR139 Antagonist Activity Averaged Max % Response (±St. Dev.)” value was 80.63 ± 3.57% and the “GPR139 Antagonist Activity Lipophilic Efficiency (logD)” value is 1.63. At GPR139 [3], the “GPR139 Antagonist Activity Lipophilic Efficiency (logP)” value stood at 0.55 and the “GPR139 Antagonist Activity Hill Slope” value was 0.70.

As for `O=C(CSc1nc(-c2ccccc2)cn1-c1ccccc1)Nc1ccc(F)cc1` [SR-01000555394], on GPR139 [1], the “GRP139 Agonist activity Averaged Max % Response (±St. Dev.)” value is on record as −854E−3 ± 6.10 ^ % and the EC50 is above 14.5 µM. Moreover, in the data set with parental HEK cells, the “HEK antagonist activity Averaged Max % Response (±St. Dev.)” value was 31.37 ± 1.24%. Also, at GPR139 [4], the “GPR139 Antagonist Activity Lipophilic Efficiency (logD)” value is reported as −672.3E−3 and the “GPR139 Antagonist Activity Lipophilic Efficiency (logP)” value was −672.4E−3. Also, at GPR139 [3], the “GPR139 Antagonist Activity Ligand Efficiency” value was 0.25, the “GPR139 Antagonist Activity Averaged Max % Response (±St. Dev.)” value is on record as 71.06 ± 5.55% and the “GPR139 Antagonist Activity Hill Slope” value is given as 0.45.

Regarding `CC1CCCC(NC(=O)c2cccc(NS(=O)(=O)c3ccc(Br)cc3)c2)C1C` (centres unmarked) [SR-01000594343], at GPR139 [1], the “GRP139 Agonist activity Averaged Max % Response (±St. Dev.)” value amounted to 16.98 ± 6.81% and the concentration for a half-maximal effect (EC50) is above 14.1 µM. At GPR139 [2], the inhibition at 10 µM was 87.2 ± 2.37% and the Ki was 3.05 ± 0.07 µM. In the data set with parental HEK cells, the “HEK antagonist activity Averaged Max % Response (±St. Dev.)” value was 10.38 ± 17.91% and the EC50 is above 14.1 µM. Further, at GPR139 [3], the concentration for a half-maximal effect (EC50) came to 7.7 µM, the “GPR139 Antagonist Activity Ligand Efficiency” value turned out to be 0.26, the “GPR139 Antagonist Activity Averaged Max % Response (±St. Dev.)” value was determined as 64.21 ± 3.85% and the “GPR139 Antagonist Activity Lipophilic Efficiency (logD)” value is 0.51. Also, at GPR139 [3], the “GPR139 Antagonist Activity Lipophilic Efficiency (logP)” value came to 0.36 and the “GPR139 Antagonist Activity Hill Slope” value is reported as −1.40.

Consider `COc1ccc(-c2cccc(NS(=O)(=O)c3ccc(I)cc3)c2)nn1` [SR-01000914310], for which, on GPR139 [1], the “GRP139 Agonist activity Averaged Max % Response (±St. Dev.)” value is recorded as 7.64 ± 5.47% and the EC50 was above 14.1 µM. For the same compound, on GPR139 [2], the inhibition at 10 µM was 72.2 ± 2.78% and the inhibitory constant (Ki) came to 1.06 ± 0.02 µM. For the same compound, in the data set on parental HEK cells, the “HEK antagonist activity Averaged Max % Response (±St. Dev.)” value amounted to 26.24 ± 12.88% and the 50% effective concentration (EC50) is above 14.1 µM. Besides, on GPR139 [3], the EC50 was found to be 6 µM, the “GPR139 Antagonist Activity Ligand Efficiency” value is recorded as 0.29, the “GPR139 Antagonist Activity Averaged Max % Response (±St. Dev.)” value is listed as 72.33 ± 6.63% and the “GPR139 Antagonist Activity Lipophilic Efficiency (logD)” value is given as 1.70. In addition, at GPR139 [3], the “GPR139 Antagonist Activity Lipophilic Efficiency (logP)” value turned out to be 1.56 and the “GPR139 Antagonist Activity Hill Slope” value is given as 1.00.

A word on the EC50: it is the concentration needed to bring the measured effect to its halfway point. Broadly, the inhibition is the drop in the measured response relative to a control, in per cent. One may read the Ki as a dissociation constant, usually derived from enzyme kinetics or from competition with a known ligand.
